This note sets out measurements from US20260232625A1, “NOVEL DECURSIN DERIVATIVE AND USE THEREOF FOR PREVENTING OR TREATING NON-SMALL CELL LUNG CANCER” (JAEIN R&P INC., priority 2023, published 2026).

The IC50 is the point on the concentration scale where inhibition reaches its midpoint. Low values mean higher potency, high ones lower potency.

This assay has as its system A549. The assay is described as follows: MTT cytotoxicity evaluation against A549 cells. In kind it is cell-based, human. The following applies: Homo sapiens, A549, 48 h, 48 hours. The procedure:
A549 (human lung cancer cells) were obtained from the American Type Culture Collection (ATCC) and used. The cells were cultured in a medium containing 10% FBS, 1% penicillin (10,000 units/mL), and streptomycin (10 mg/mL), or in Dulbecco's Modified Eagle's Medium (DMEM), at 37° C. under 5% CO2 conditions.
To measure cytotoxicity, an MTT assay was used. Specifically, A549 cells cultured according to Experimental Example 1 were seeded into a 96-well plate at a density of 2.5×10^4 cells/mL in 100 μL, and incubated for 24 hours. Thereafter, the cells were treated with either the compounds prepared according to Examples 1 to 27 or, as comparative agents, decursin or docetaxel. The prepared compounds and decursin were each administered to the A549 cell line at concentrations of 0 μM (untreated), 12.5 μM, 25 μM, 50 μM, 100 μM, and 200 μM, while docetaxel was administered at concentrations of 0 nM (untreated), 0.1 nM, 1 nM, 10 nM, 100 nM, and 1,000 nM, followed by incubation for an additional 48 hours. Then, 20 μL of MTT solution was added (Method 1). Alternatively, the compounds prepared according to Examples 28 to 30, the compound of Example 5 as a reference compound or, as comparative agents, decursin or docetaxel, were used. The prepared compounds, the compound of Example 5, and decursin were each administered at concentrations of 0 μM (untreated), 3.125 μM, 6.25 μM, 12.5 μM, 25 μM, and 50 μM, while docetaxel was administered at concentrations of 0 nM (untreated), 0.6 nM, 1.25 nM, 2.5 nM, 5 nM, and 10 nM, and treated in the same manner as described in Method 1 (Method 2). The cells treated with MTT solution were incubated for 2 hours, the medium was removed, and the formazan blue crystals formed by the cells were treated with an MTT lysis buffer, followed by incubation in a cell incubator for 24 hours. The MTT lysis buffer was prepared by mixing N,N-dimethylformamide with water in a 1:1 ratio to give a solution containing 20% SIDS (sodium dodecyl sulfate) at the final concentration. The optical density at 590 nm was measured using a microplate reader (FIGS. 1a to 1d). Based on the measured values, the cytotoxicity (IC50) against A549 was calculated, and the results are disclosed in Table 1 together with the structural formulae.

`CC(C)=CC(=O)O[C@H]1Cc2cc3ccc(=O)oc3cc2OC1(C)C` [Decursin, decursin]: the IC50 stood at 43.6 µM (Method 1: 12.5-200 μM) and 30.4 µM (Method 2 (marked *): 3.125-50 μM).
For the compound `CC1(C)Oc2cc3oc(=O)ccc3cc2C[C@@H]1OC(=O)CCn1ccnc1` [Example 1, (S)-2,2-dimethyl-8-oxo-2,3,4,8-tetrahydropyrano[3,2-g]chromen-3-yl 3-(1H-imidazol-1-yl)propanoate], the IC50 (Method 1: 12.5-200 μM) was over 200 µM.
The same measure, in the same setting: next, `CC1(C)Oc2cc3oc(=O)ccc3cc2C[C@@H]1OC(=O)CCc1ccccn1` [Example 2, (S)-2,2-dimethyl-8-oxo-2,3,4,8-tetrahydropyrano[3,2-g]chromen-3-yl 3-(pyridin-2-yl)propanoate]: over 200 µM; `CC1(C)Oc2cc3oc(=O)ccc3cc2C[C@@H]1OC(=O)/C=C/c1ccccn1` [Example 3, (S,E)-2,2-dimethyl-8-oxo-2,3,4,8-tetrahydropyrano[3,2-g]chromen-3-yl 3-(pyridin-2-yl)acrylate]: 113 µM.
Where the note is “Method 1: 12.5-200 μM”, `C/C(=C\c1ccccc1)C(=O)O[C@H]1Cc2cc3ccc(=O)oc3cc2OC1(C)C` [Example 4, (S,E)-2,2-dimethyl-8-oxo-2,3,4,8-tetrahydropyrano[3,2-g]chromen-3-yl 2-methyl-3-phenylacrylate] returned an IC50 of 80.7 µM. The IC50 values of the last two compounds are within 1.5-fold of each other.
Turning to `CC1(C)Oc2cc3oc(=O)ccc3cc2C[C@@H]1OC(=O)CCc1ccc2c(c1)OCO2` [Example 6, (S)-2,2-dimethyl-8-oxo-2,3,4,8-tetrahydropyrano[3,2-g]chromen-3-yl 3-(benzo[d][1,3]dioxol-5-yl)propanoate], the IC50 (Method 1: 12.5-200 μM) is at least 219 µM.
Turning to `CC1(C)Oc2cc3oc(=O)ccc3cc2C[C@@H]1OC(=O)/C=C/c1ccc2c(c1)OCO2` [Example 7, (S,E)-2,2-dimethyl-8-oxo-2,3,4,8-tetrahydropyrano[3,2-g]chromen-3-yl 3-(benzo[d][1,3]dioxol-5-yl)acrylate], for the setting “Method 1: 12.5-200 μM”, the 50% inhibitory concentration (IC50) was over 200 µM.
As to `CN(C)S(=O)(=O)c1ccc(/C=C/C(=O)O[C@H]2Cc3cc4ccc(=O)oc4cc3OC2(C)C)cc1` [Example 8, (S,E)-2,2-dimethyl-8-oxo-2,3,4,8-tetrahydropyrano[3,2-g]chromen-3-yl 3-(4-(N,N-dimethylsulfamoyl)phenyl)acrylate], for the setting “Method 1: 12.5-200 μM”, the IC50 was over 200 µM.
Consider `CC1(C)Oc2cc3oc(=O)ccc3cc2C[C@@H]1OC(=O)/C=C/c1ccc(C(F)(F)F)cc1` [Example 9, (S,E)-2,2-dimethyl-8-oxo-2,3,4,8-tetrahydropyrano[3,2-g]chromen-3-yl 3-(4-(trifluoromethyl)phenyl)acrylate], for which the IC50 (Method 1: 12.5-200 μM) was over 200 µM.
Same read-out and setting: next, `CC1(C)Oc2cc3oc(=O)ccc3cc2C[C@H]1OC(=O)CCn1ccnc1` [Example 10, (R)-2,2-dimethyl-8-oxo-2,3,4,8-tetrahydropyrano[3,2-g]chromen-3-yl 3-(1H-imidazol-1-yl)propanoate]: over 200 µM; `CC1(C)Oc2cc3oc(=O)ccc3cc2C[C@H]1OC(=O)CCc1ccccn1` [Example 11, (R)-2,2-dimethyl-8-oxo-2,3,4,8-tetrahydropyrano[3,2-g]chromen-3-yl 3-(pyridin-2-yl)propanoate]: over 200 µM; `CC1(C)Oc2cc3oc(=O)ccc3cc2C[C@H]1OC(=O)/C=C/c1ccccn1` [Example 12, (R,E)-2,2-dimethyl-8-oxo-2,3,4,8-tetrahydropyrano[3,2-g]chromen-3-yl 3-(pyridin-2-yl)acrylate]: 184 µM.
`C/C(=C\c1ccccc1)C(=O)O[C@@H]1Cc2cc3ccc(=O)oc3cc2OC1(C)C` [Example 13, (R,E)-2,2-dimethyl-8-oxo-2,3,4,8-tetrahydropyrano[3,2-g]chromen-3-yl 2-methyl-3-phenylacrylate] returned an IC50 (Method 1: 12.5-200 μM) of 108 µM.
`CC1(C)Oc2cc3oc(=O)ccc3cc2C[C@H]1OC(=O)/C=C/c1ccoc1` [Example 14, (R,E)-2,2-dimethyl-8-oxo-2,3,4,8-tetrahydropyrano[3,2-g]chromen-3-yl 3-(furan-3-yl)acrylate] yielded an IC50 (Method 1: 12.5-200 μM) of 152 µM.
Where the note is “Method 1: 12.5-200 μM”, `CC1(C)Oc2cc3oc(=O)ccc3cc2C[C@H]1OC(=O)CCc1ccc2c(c1)OCO2` [Example 15, (R)-2,2-dimethyl-8-oxo-2,3,4,8-tetrahydropyrano[3,2-g]chromen-3-yl 3-(benzo[d][1,3]dioxol-5-yl)propanoate] returned an IC50 of over 200 µM.
`CC1(C)Oc2cc3oc(=O)ccc3cc2C[C@H]1OC(=O)/C=C/c1ccc2c(c1)OCO2` [Example 16, (R,E)-2,2-dimethyl-8-oxo-2,3,4,8-tetrahydropyrano[3,2-g]chromen-3-yl 3-(benzo[d][1,3]dioxol-5-yl)acrylate]: for the setting “Method 1: 12.5-200 μM”, the IC50 was over 200 µM.
As to `CN(C)S(=O)(=O)c1ccc(/C=C/C(=O)O[C@@H]2Cc3cc4ccc(=O)oc4cc3OC2(C)C)cc1` [Example 17, (R,E)-2,2-dimethyl-8-oxo-2,3,4,8-tetrahydropyrano[3,2-g]chromen-3-yl 3-(4-(N,N-dimethylsulfamoyl)phenyl)acrylate], the IC50 (Method 1: 12.5-200 μM) was over 200 µM.
The compound `CC1(C)Oc2cc3oc(=O)ccc3cc2C[C@H]1OC(=O)/C=C/c1ccc(C(F)(F)F)cc1` [Example 18, (R,E)-2,2-dimethyl-8-oxo-2,3,4,8-tetrahydropyrano[3,2-g]chromen-3-yl 3-(4-(trifluoromethyl)phenyl)acrylate] yielded a 50% inhibitory concentration (IC50) (Method 1: 12.5-200 μM) of 172 µM.
The compound `CC1(C)Oc2cc3oc(=O)ccc3cc2[C@@H](NC(=O)CCn2ccnc2)[C@@H]1O` [Example 19, N-((3S,4R)-3-hydroxy-2,2-dimethyl-8-oxo-2,3,4,8-tetrahydropyrano[3,2-g]chromen-4-yl)-3-(1H-imidazol-1-yl)propanamide] had an IC50 (Method 1: 12.5-200 μM) of over 200 µM.
The compound `CC1(C)Oc2cc3oc(=O)ccc3cc2[C@@H](NC(=O)CCc2ccccn2)[C@@H]1O` [Example 20, N-((3S,4R)-3-hydroxy-2,2-dimethyl-8-oxo-2,3,4,8-tetrahydropyrano[3,2-g]chromen-4-yl)-3-(pyridin-2-yl)propanamide] showed an IC50 (Method 1: 12.5-200 μM) of over 200 µM.
Regarding `CC1(C)Oc2cc3oc(=O)ccc3cc2[C@@H](NC(=O)/C=C/c2ccccn2)[C@@H]1O` [Example 21, (E)-N-((3S,4R)-3-hydroxy-2,2-dimethyl-8-oxo-2,3,4,8-tetrahydropyrano[3,2-g]chromen-4-yl)-3-(pyridin-2-yl)acrylamide], the IC50 (Method 1: 12.5-200 μM) was over 200 µM.
For the setting “Method 1: 12.5-200 μM”, `C/C(=C\c1ccccc1)C(=O)N[C@@H]1c2cc3ccc(=O)oc3cc2OC(C)(C)[C@H]1O` [Example 22, (E)-N-((3S,4R)-3-hydroxy-2,2-dimethyl-8-oxo-2,3,4,8-tetrahydropyrano[3,2-g]chromen-4-yl)-2-methyl-3-phenylacrylamide] came in with an IC50 of over 200 µM.
The compound `CC1(C)Oc2cc3oc(=O)ccc3cc2[C@@H](NC(=O)/C=C/c2ccoc2)[C@@H]1O` [Example 23, (E)-3-(furan-3-yl)-N-((3S,4R)-3-hydroxy-2,2-dimethyl-8-oxo-2,3,4,8-tetrahydropyrano[3,2-g]chromen-4-yl)acrylamide] displayed an IC50 (Method 1: 12.5-200 μM) of over 200 µM.
In the case of `CC1(C)Oc2cc3oc(=O)ccc3cc2[C@@H](NC(=O)CCc2ccc3c(c2)OCO3)[C@@H]1O` [Example 24, 3-(benzo[d][1,3]dioxol-5-yl)-N-((3S,4R)-3-hydroxy-2,2-dimethyl-8-oxo-2,3,4,8-tetrahydropyrano[3,2-g]chromen-4-yl)propanamide], the IC50 (Method 1: 12.5-200 μM) is over 200 µM.
